Results from ChEMBL document CHEMBL1201862, “PubChem BioAssay data set” (2004).
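Growth conditions: 96-well plates. Treatment: test compound, 48 hours, 5 concentrations. Analysis: linear interpolation between bracketing concentrations; unreached endpoints set to highest concentration. GI50 is the concentration that inhibits growth by half.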 Activity calls are given as the source filed them. No stated cut-off is given here; in the data, active = GI50 up to about 1.1 µM and inactive = higher.

Assays:
Assay in all cases: inhibition of tumour cell growth, NCI panel, 48 h
[1] = tested on: SNB-75
[2] = tested on: SR
[3] = tested on: OVCAR-4
[4] = tested on: NCI/ADR-RES
[5] = tested on: HOP-62
[6] = tested on: SF-268
[7] = tested on: CAKI-1
[8] = tested on: A549
[9] = tested on: HCC 2998
[10] = tested on: SK-OV-3
[11] = tested on: LOX IMVI
[12] = tested on: SK-MEL-5
[13] = tested on: BT-549
[14] = tested on: SK-MEL-28
[15] = tested on: SK-MEL-2
[16] = tested on: MDA-N
[17] = tested on: A498
[18] = tested on: OVCAR-5
[19] = tested on: MDA-MB-231
[20] = tested on: UACC-62

Structure (SMILES) | GI50 [1] | GI50 [2] | GI50 [3] | GI50 [4] | GI50 [5] | GI50 [6] | GI50 [7] | GI50 [8] | GI50 [9] | GI50 [10] | GI50 [11] | GI50 [12] | GI50 [13] | GI50 [14] | GI50 [15] | GI50 [16] | GI50 [17] | GI50 [18] | GI50 [19] | GI50 [20]
CN1CCN(c2ccc3[nH]c(-c4ccc5[nH]c(-c6ccc(O)cc6)nc5c4)nc3c2)CC1 | 353 µM (inactive) | 28.1 µM (inactive) | 274 µM (inactive) | 482 µM (inactive) | 250 µM (inactive) | 70.8 µM (inactive) | 105 µM (inactive) | 332 µM (inactive) | 151 µM (inactive) | 664 µM (inactive) | 85.5 µM (inactive) | 11.8 µM (inactive) | 455 µM (inactive) | 19.8 µM (inactive) | > 100 µM (inactive) | 22.9 µM (inactive) | 241 µM (inactive) | 473 µM (inactive) | 481 µM (inactive) | 
C=C1C(=O)OC2C1CCC(C)C1C=CC(=O)C12C (stereo not given) | 8.15 µM (inactive) | 1.51 µM (inactive) | 6.76 µM (inactive) | 1.41 µM (inactive) | 15.5 µM (inactive) | 8.61 µM (inactive) | 2.97 µM (inactive) | 7.76 µM (inactive) | 12 µM (inactive) | 28 µM (inactive) | 1.93 µM (inactive) | 3.33 µM (inactive) | 1.63 µM (inactive) | 2.05 µM (inactive) | 4.39 µM (inactive) | 1.77 µM (inactive) | 12.1 µM (inactive) | 4.53 µM (inactive) | 2.19 µM (inactive) | 1.79 µM (inactive)
Brc1ccc2c3c1[C@@H]1O[C@@H]1c1cccc(c1-3)[C@@H]1O[C@H]21 | 19.8 µM (inactive) | > 100 µM (inactive) | 17.9 µM (inactive) | 17.4 µM (inactive) | 19.5 µM (inactive) | 24.2 µM (inactive) | 13.1 µM (inactive) | 26.1 µM (inactive) |  | 27.5 µM (inactive) | 2.21 µM (inactive) | 16.9 µM (inactive) | 21.1 µM (inactive) | 17.6 µM (inactive) | 23.6 µM (inactive) | 17.6 µM (inactive) | 26.9 µM (inactive) | 17.6 µM (inactive) | 27.4 µM (inactive) | 17.2 µM (inactive)
C=CCSc1nn(CC=C)cc2ncnc1-2 | > 100 µM (inactive) | > 100 µM (inactive) |  | > 100 µM (inactive) | > 100 µM (inactive) | > 100 µM (inactive) | > 100 µM (inactive) | > 100 µM (inactive) |  |  |  | > 100 µM (inactive) | > 100 µM (inactive) | > 100 µM (inactive) | > 100 µM (inactive) | > 100 µM (inactive) | > 100 µM (inactive) | > 100 µM (inactive) | > 100 µM (inactive) | > 100 µM (inactive)
N#Cc1ccc(OCc2nc3cc(C(F)(F)F)ccc3nc2-c2ccccc2)cc1 | > 100 µM (inactive) | 70.5 µM (inactive) | > 100 µM (inactive) | > 100 µM (inactive) | > 100 µM (inactive) | > 100 µM (inactive) | > 100 µM (inactive) | > 100 µM (inactive) | > 100 µM (inactive) |  | > 100 µM (inactive) | > 100 µM (inactive) | > 100 µM (inactive) | > 100 µM (inactive) | > 100 µM (inactive) | > 100 µM (inactive) | > 100 µM (inactive) | > 100 µM (inactive) | 51.1 µM (inactive) | > 100 µM (inactive)
Clc1cc(Br)c2c3c(c(Br)cc(Cl)c13)C(Br)=C2Br | 13.8 µM (inactive) | 27.9 µM (inactive) | 44.9 µM (inactive) | 22.8 µM (inactive) | 64.3 µM (inactive) | 22.5 µM (inactive) |  | 55.8 µM (inactive) | 18.3 µM (inactive) | > 100 µM (inactive) | 16.9 µM (inactive) |  | 38.7 µM (inactive) | > 100 µM (inactive) | 29.9 µM (inactive) | 42.3 µM (inactive) | > 100 µM (inactive) | 44.2 µM (inactive) | 28.1 µM (inactive) | 23.2 µM (inactive)
c1ccc(C2C3=C(CCCC3)Nc3nc4cc5ccccc5cc4n32)cc1 (stereo not given) | > 100 µM (inactive) | > 100 µM (inactive) | > 100 µM (inactive) | > 100 µM (inactive) |  | > 100 µM (inactive) | > 100 µM (inactive) | > 100 µM (inactive) | > 100 µM (inactive) | > 100 µM (inactive) | > 100 µM (inactive) | > 100 µM (inactive) | > 100 µM (inactive) | > 100 µM (inactive) | > 100 µM (inactive) | > 100 µM (inactive) | > 100 µM (inactive) | > 100 µM (inactive) | > 100 µM (inactive) | > 100 µM (inactive)
COC(=O)C(Cc1ccccc1)NP(=O)(O)OCC1OC(n2cc(F)c(=O)[nH]c2=O)CC1O (stereo not given) | > 31.9 µM (inactive) | 2.54 µM (inactive) | > 100 µM (inactive) | 5.7 µM (inactive) | 2.58 µM (inactive) | 1.75 µM (inactive) | 3.72 µM (inactive) | 0.955 µM (active) | 2.39 µM (inactive) | 61.4 µM (inactive) | 3.21 µM (inactive) | 15.3 µM (inactive) | > 100 µM (inactive) | > 67 µM (inactive) | > 100 µM (inactive) | > 69 µM (inactive) | 7.38 µM (inactive) | > 100 µM (inactive) | > 100 µM (inactive) | 7 µM (inactive)
CN(C)CCNC(=O)c1cccc(N(C)C(=O)c2ccccc2)c1[N+](=O)[O-] | 53.6 µM (inactive) | > 100 µM (inactive) |  | > 100 µM (inactive) | > 100 µM (inactive) | > 100 µM (inactive) | > 100 µM (inactive) | > 100 µM (inactive) | > 100 µM (inactive) | > 100 µM (inactive) |  | > 100 µM (inactive) | > 100 µM (inactive) | > 100 µM (inactive) | > 100 µM (inactive) | > 100 µM (inactive) | > 100 µM (inactive) | > 100 µM (inactive) | > 100 µM (inactive) | > 100 µM (inactive)
COc1ccc(CNc2nc3ccccc3nc2C(=O)O)cc1OC | > 100 µM (inactive) | > 100 µM (inactive) | > 100 µM (inactive) | 26.7 µM (inactive) | > 100 µM (inactive) | > 100 µM (inactive) | > 100 µM (inactive) | > 100 µM (inactive) | > 100 µM (inactive) | > 100 µM (inactive) | > 100 µM (inactive) | > 100 µM (inactive) | 30.7 µM (inactive) | > 100 µM (inactive) |  | > 100 µM (inactive) | 91.2 µM (inactive) |  | > 100 µM (inactive) | > 100 µM (inactive)
CC(C)(C)OC(=O)NC1CCCC1C(O)(C1=CCCC1)C1=CCCC1 (stereo not given) | 48.1 µM (inactive) | > 100 µM (inactive) | 67.6 µM (inactive) | > 100 µM (inactive) | > 100 µM (inactive) | > 100 µM (inactive) |  | > 100 µM (inactive) | > 100 µM (inactive) | > 100 µM (inactive) | > 100 µM (inactive) | > 100 µM (inactive) | > 100 µM (inactive) | > 100 µM (inactive) | > 100 µM (inactive) | > 100 µM (inactive) | > 100 µM (inactive) | > 100 µM (inactive) | 43.2 µM (inactive) | 51.9 µM (inactive)
